Source: ChEMBL document CHEMBL2057180, “Triterpenes from Alisma orientalis act as farnesoid X receptor agonists” (Bioorg Med Chem Lett, 2012)
The source made the active and inactive calls. The rule behind the calls is not given here.

How the values were obtained:
[1] = biological target: T1, Bile acid receptor (Homo sapiens) (UniProt Q96RI1); experiment: Agonist activity at FXR LBD expressed in human HepG2 cells co-expressing GAL4 DBD and pG5-luc assessed as transrepression of rat CYP7A1 promoter-driven luciferase activity after 48 hrs by transient transfection reporter assay relative to control; format: functional, cell-based
T1 sequence (whole entry): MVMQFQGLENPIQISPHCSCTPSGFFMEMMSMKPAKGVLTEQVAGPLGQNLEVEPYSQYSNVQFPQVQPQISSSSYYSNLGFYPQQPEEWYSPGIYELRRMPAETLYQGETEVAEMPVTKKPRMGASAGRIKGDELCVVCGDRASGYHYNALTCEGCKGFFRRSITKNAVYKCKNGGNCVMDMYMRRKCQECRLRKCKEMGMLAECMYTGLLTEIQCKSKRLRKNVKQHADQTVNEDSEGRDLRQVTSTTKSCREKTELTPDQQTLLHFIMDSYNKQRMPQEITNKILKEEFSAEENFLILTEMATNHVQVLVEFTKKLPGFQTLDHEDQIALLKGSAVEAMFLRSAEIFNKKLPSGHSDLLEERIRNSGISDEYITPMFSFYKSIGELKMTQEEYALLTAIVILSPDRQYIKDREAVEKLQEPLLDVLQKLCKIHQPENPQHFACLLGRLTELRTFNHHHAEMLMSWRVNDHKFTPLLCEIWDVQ

[2] = biological target: T1, Bile acid receptor (Homo sapiens); experiment: Agonist activity at FXR LBD expressed in human HepG2 cells co-expressing GAL4 DBD and pG5-luc assessed as SHP promoter-driven luciferase activity at 1 uM after 48 hrs by transient transfection reporter assay relative to control; format: functional, cell-based
[3] = biological target: T1, Bile acid receptor (Homo sapiens); experiment: Agonist activity at FXR LBD expressed in human HepG2 cells co-expressing GAL4 DBD and pG5-luc assessed as luciferase activity at 1 uM after 48 hrs by transient transfection reporter assay relative to control; format: functional, cell-based
[4] = biological target: T1, Bile acid receptor (Homo sapiens); experiment: Agonist activity at FXR LBD expressed in human HepG2 cells co-expressing GAL4 DBD and pG5-luc assessed as transrepression of rat CYP7A1 promoter-driven luciferase activity at 100 nM after 48 hrs by transient transfection reporter assay relative to control; format: functional, cell-based
[5] = biological target: T1, Bile acid receptor (Homo sapiens); experiment: Agonist activity at FXR LBD expressed in human HepG2 cells co-expressing GAL4 DBD and pG5-luc assessed as luciferase activity at 100 nM after 48 hrs by transient transfection reporter assay relative to control; format: functional, cell-based
[6] = biological target: T1, Bile acid receptor (Homo sapiens); experiment: Agonist activity at FXR LBD expressed in human HepG2 cells co-expressing GAL4 DBD and pG5-luc assessed as SHP promoter-driven luciferase activity at 100 nM after 48 hrs by transient transfection reporter assay relative to control; format: functional, cell-based
[7] = biological target: T1, Bile acid receptor (Homo sapiens); experiment: Agonist activity at FXR LBD expressed in human HepG2 cells co-expressing GAL4 DBD and pG5-luc assessed as PLTP promoter-driven luciferase activity after 48 hrs by transient transfection reporter assay relative to control; format: functional, cell-based
HepG2 = experiment: Cytotoxicity against human HepG2 cells; format: cell-based
[8] = biological target: T1, Bile acid receptor (Homo sapiens); experiment: Agonist activity at FXR LBD expressed in human HepG2 cells co-expressing GAL4 DBD and pG5-luc assessed as PLTP promoter-driven luciferase activity at 100 nM after 48 hrs by transient transfection reporter assay relative to control; format: functional, cell-based

Compound	Activity [1]	Ratio [2]	Ratio [3]	Activity [4]	Activity [5]	Activity [6]	Activity [7]	Activity (HepG2)	Activity [8]
CC(=O)O[C@@H](C[C@@H](C)C1=C2C[C@H](O)[C@H]3[C@@]4(C)CCC(=O)C(C)(C)[C@@H]4CC[C@]3(C)[C@@]2(C)CC1)[C@@H](O)C(C)(C)O	Dose-dependent effect	1.6	2	inactive	inactive	inactive	Dose-dependent effect	Non-toxic	inactive
CC(=O)O[C@@H](C[C@@H](C)C1=C2[C@H](O)[C@H](O)[C@H]3[C@@]4(C)CCC(=O)C(C)(C)[C@@H]4CC[C@]3(C)[C@@]2(C)CC1=O)[C@H]1OC1(C)C	Dose-dependent effect	1.6	2	85%	inactive	inactive	Dose-dependent effect	Non-toxic	inactive
C[C@H](C[C@H](O)[C@H]1OC1(C)C)C1=C2C[C@H](O)[C@H]3[C@@]4(C)CCC(=O)C(C)(C)[C@@H]4CC[C@]3(C)[C@@]2(C)CC1 [ALISOL B]	–	–	–	–	–	–	–	Toxic	–
